Data as given in paper PMC10066365, “Nemacol is a small molecule inhibitor of C. elegans vesicular acetylcholine transporter with anthelmintic potential” (Nature Communications, 2023).
“And” between values parts separate entries of the source, which are not always exact repeats. Equal values may be shown once. “Also recorded” adds a separate entry of the source.

System: C. elegans
Experiment: C. elegans motor phenotype scoring on solid media (Punc/jerky-unc, coiled, paralyzed), wild-type young adults
Type: in vivo, Caenorhabditis elegans
Settings: for any phene, mean % fraction of young adults exhibiting any phenotype (coiled, jerky-Unc or paralyzed) / atypical locomotion (number of animals) / coiled (number of animals) / no phene (number of animals) / paralyzed (number of animals): one hour; for any phene, mean % fraction of young adults exhibiting any phenotype (coiled, jerky-Unc or paralyzed): mean of three biological replicates; for atypical locomotion (number of animals) / coiled (number of animals) / no phene (number of animals) / paralyzed (number of animals): young adults, 20 animals per trial, single replicate counts; for Fraction Coiled / Fraction Paralyzed / Fraction Punc: single experiment

O=[N+]([O-])c1ccc(N2CCN(CC3CC4C=CC3C4)CC2)cc1 (stereo not drawn) [Nemacol-3]
any phene, mean % fraction of young adults exhibiting any phenotype (coiled, jerky-Unc or paralyzed) (3.75uM): 19.1667%
atypical locomotion (number of animals) (3.75uM): 0 and 13 and 10
coiled (number of animals) (3.75uM): 0
no phene (number of animals) (3.75uM): 20 and 7 and 10
paralyzed (number of animals) (3.75uM): 0
C1 (number of animals scored) (15 μM, 30 min, adults): 0
C2 (number of animals scored) (15 μM, 30 min, adults): 0
Fraction Coiled, AVERAGES (15 μM, 30 min, adults): 0.0
Fraction Paralyzed, AVERAGES (15 μM, 30 min, adults): 0.0
Fraction Punc, AVERAGES (15 μM, 30 min, adults): 0.111
NP (number of animals scored) (15 μM, 30 min, adults): 17 and 14
P (number of animals scored) (15 μM, 30 min, adults): 0
Fraction Coiled (15 μM, 30 min, adults): 0.0
Fraction Paralyzed (15 μM, 30 min, adults): 0.0
C1 (number of animals scored) (15 μM, 60 min, adults): 0
C2 (number of animals scored) (15 μM, 60 min, adults): 0
Fraction Coiled, AVERAGES (15 μM, 60 min, adults): 0.0
Fraction Paralyzed, AVERAGES (15 μM, 60 min, adults): 0.0
Fraction Punc, AVERAGES (15 μM, 60 min, adults): 0.4
P (number of animals scored) (15 μM, 60 min, adults): 0
Fraction Coiled (15 μM, 60 min, adults): 0.0
Fraction Paralyzed (15 μM, 60 min, adults): 0.0
C1 (number of animals scored) (15 μM, 90 min, adults): 0
C2 (number of animals scored) (15 μM, 90 min, adults): 0
Fraction Coiled, AVERAGES (15 μM, 90 min, adults): 0.0
Fraction Paralyzed, AVERAGES (15 μM, 90 min, adults): 0.0
Fraction Punc, AVERAGES (15 μM, 90 min, adults): 0.167
NP (number of animals scored) (15 μM, 90 min, adults): 16 and 14 and 15
P (number of animals scored) (15 μM, 90 min, adults): 0
Punc (number of animals scored) (15 μM, 90 min, adults): 2 and 4 and 3
Fraction Coiled (15 μM, 90 min, adults): 0.0
Fraction Paralyzed (15 μM, 90 min, adults): 0.0
Fraction Punc (15 μM, 90 min, adults): 0.111 and 0.222 and 0.167
C1 (number of animals scored) (15 μM, 120 min, adults): 0
C2 (number of animals scored) (15 μM, 120 min, adults): 0
Fraction Coiled, AVERAGES (15 μM, 120 min, adults): 0.0
Fraction Paralyzed, AVERAGES (15 μM, 120 min, adults): 0.0
Fraction Punc, AVERAGES (15 μM, 120 min, adults): 0.0185
NP (number of animals scored) (15 μM, 120 min, adults): 18 and 17
P (number of animals scored) (15 μM, 120 min, adults): 0
Fraction Coiled (15 μM, 120 min, adults): 0.0
Fraction Paralyzed (15 μM, 120 min, adults): 0.0
C1 (number of animals scored) (15 μM, 240 min, adults): 0
C2 (number of animals scored) (15 μM, 240 min, adults): 0
Fraction Coiled, AVERAGES (15 μM, 240 min, adults): 0.0
Fraction Paralyzed, AVERAGES (15 μM, 240 min, adults): 0.0
Fraction Punc, AVERAGES (15 μM, 240 min, adults): 0.0
NP (number of animals scored) (15 μM, 240 min, adults): 18
P (number of animals scored) (15 μM, 240 min, adults): 0
Punc (number of animals scored) (15 μM, 240 min, adults): 0
Fraction Coiled (15 μM, 240 min, adults): 0.0
Fraction Paralyzed (15 μM, 240 min, adults): 0.0
Fraction Punc (15 μM, 240 min, adults): 0.0
C1 (number of animals scored) (15 μM, 360 min, adults): 0
C2 (number of animals scored) (15 μM, 360 min, adults): 0
Fraction Coiled, AVERAGES (15 μM, 360 min, adults): 0.0
Fraction Paralyzed, AVERAGES (15 μM, 360 min, adults): 0.0
Fraction Punc, AVERAGES (15 μM, 360 min, adults): 0.0
NP (number of animals scored) (15 μM, 360 min, adults): 18
P (number of animals scored) (15 μM, 360 min, adults): 0
Punc (number of animals scored) (15 μM, 360 min, adults): 0
Fraction Coiled (15 μM, 360 min, adults): 0.0
Fraction Paralyzed (15 μM, 360 min, adults): 0.0
Fraction Punc (15 μM, 360 min, adults): 0.0
Next Day: Animals alive (moving fine) (15 μM, next day, adults): alive, recovered; also recorded: alive recovered
any phene, mean % fraction of young adults exhibiting any phenotype (coiled, jerky-Unc or paralyzed) (15uM): 65.4545%
atypical locomotion (number of animals) (15uM): 12 and 14 and 4 and 3 and 7
coiled (number of animals) (15uM): 2 and 1 and 5
no phene (number of animals) (15uM): 6 and 5 and 15 and 16 and 0
paralyzed (number of animals) (15uM): 2 and 0 and 8 and 11
C1 (number of animals scored) (30 μM, 30 min, adults): 0
C2 (number of animals scored) (30 μM, 30 min, adults): 0
Fraction Coiled, AVERAGES (30 μM, 30 min, adults): 0.0
Fraction Paralyzed, AVERAGES (30 μM, 30 min, adults): 0.0
Fraction Punc, AVERAGES (30 μM, 30 min, adults): 0.333
NP (number of animals scored) (30 μM, 30 min, adults): 14 and 11
P (number of animals scored) (30 μM, 30 min, adults): 0
Punc (number of animals scored) (30 μM, 30 min, adults): 4 and 7
Fraction Coiled (30 μM, 30 min, adults): 0.0
Fraction Paralyzed (30 μM, 30 min, adults): 0.0
Fraction Punc (30 μM, 30 min, adults): 0.222 and 0.4
C1 (number of animals scored) (30 μM, 60 min, adults): 0
C2 (number of animals scored) (30 μM, 60 min, adults): 0
Fraction Coiled, AVERAGES (30 μM, 60 min, adults): 0.0
Fraction Paralyzed, AVERAGES (30 μM, 60 min, adults): 0.0
Fraction Punc, AVERAGES (30 μM, 60 min, adults): 0.6
P (number of animals scored) (30 μM, 60 min, adults): 0
Punc (number of animals scored) (30 μM, 60 min, adults): 8 and 15
Fraction Coiled (30 μM, 60 min, adults): 0.0
Fraction Paralyzed (30 μM, 60 min, adults): 0.0
Fraction Punc (30 μM, 60 min, adults): 0.444 and 0.8
C1 (number of animals scored) (30 μM, 90 min, adults): 0
C2 (number of animals scored) (30 μM, 90 min, adults): 0
Fraction Coiled, AVERAGES (30 μM, 90 min, adults): 0.0
Fraction Paralyzed, AVERAGES (30 μM, 90 min, adults): 0.0
Fraction Punc, AVERAGES (30 μM, 90 min, adults): 0.3
NP (number of animals scored) (30 μM, 90 min, adults): 13 and 9 and 16
P (number of animals scored) (30 μM, 90 min, adults): 0
Fraction Coiled (30 μM, 90 min, adults): 0.0
Fraction Paralyzed (30 μM, 90 min, adults): 0.0
C1 (number of animals scored) (30 μM, 120 min, adults): 0
C2 (number of animals scored) (30 μM, 120 min, adults): 0
